Measurements as given in paper PMC11395096, “Study of Pentacyclic Triterpenes from Lyophilised Aguaje: Anti-Inflammatory and Antioxidant Properties” (International Journal of Molecular Sciences, 2024).
Counter-ions that a name gives are not always drawn.

Experiments:
NO production [1] = assay: NO inhibition assay, LPS-stimulated IC-21 cells; assay type: cell-based, Mus musculus; conditions: IC-21, + LPS 100 μg mL^−1, 72 h
Description: (§1) The IC-21 (Mus musculus macrophage cells, TIB-186) and RAW 264.7 (Mus musculus macrophage cells, TIB-71) cell lines used in this study were obtained from the American Type Culture Collection (ATCC, Manassas, VA, USA). The selection of IC-21 and RAW 264.7 cell lines for studies on inflammation and antioxidant activity is based on two main reasons: the cell type and their origin. Firstly, both IC-21 and RAW 264.7 cell lines are macrophages, which play a crucial role in the immune system, being essential for the inflammatory response and regulation of oxidative stress. These cells have the capacity to produce pro-inflammatory cytokines, express transcription factors such as NF-κB, and generate NO, making them ideal models to understand inflammatory mechanisms. Moreover, macrophages are involved in the activation of Nrf2, a transcription factor critical for the antioxidant response, allowing these cell lines to enable a comprehensive assessment of antioxidant activity within an inflammatory context.
(§2) Stock solutions of the samples (extracts and compounds) were prepared at a concentration of 1 mM using dimethyl sulfoxide (DMSO ≥ 99.9% Sigma-Aldrich, CAS No. 67-68-5, St. Louis, MO, USA) as the solvent. Dilutions from these stock solutions were then made to achieve concentrations between 100 and 0.20 μg mL^−1 or μM in the culture medium, which contained 0.5% DMSO. A control group consisting only of the culture medium with 0.5% DMSO was also included to determine its potential cytotoxicity.
(§3) The 50% cytotoxic concentration (CC50), 50% inhibitory concentration (IC50), and half-maximal effective concentration (EC50) values were calculated using the sigmoidal dose–response function. All experiments were conducted in triplicate, and the data obtained were expressed as the mean and standard deviation. A two-way analysis of variance (ANOVA) combined with Dunnett’s multiple comparisons test (p < 0.001) was performed for the cytotoxicity, NF-κB inhibition, NO inhibition and Nrf2 activation assays, while a one-way ordinary ANOVA combined with Dunnett’s multiple comparisons test (p < 0.001) was conducted for the SOD assay. All statistical analyses were performed using GraphPad Prism version 10.0.0 (La Jolla, CA, USA, www.graphpad.com, accessed on 28 August 2024).
(§4) To determine the anti-inflammatory activity of the samples (at the same concentration as in the viability assay), the […] was used, implementing the protocol adapted from Guo et al.. Cells were cultured in 96-well plates (1 × 10^4 cells per well). […] Absorbance was measured at 540 nm using a microplate reader.

NO production [2] = assay: NO inhibition assay, value not assigned to one cell line; assay type: cell-based; conditions: Mus musculus
Description: as §4

NO production [3] = assay: NO inhibition assay, LPS-stimulated RAW 264.7 cells; assay type: cell-based, Mus musculus; conditions: RAW 264.7, + LPS 100 μg mL^−1, 72 h
Description: as §1, §2, §3, §4

Nrf2 [4] = assay: Nrf2 activation assay, IC-21 cells; assay type: cell-based; conditions: Mus musculus, 72 h, IC-21, 72 h, read-out: Activation of Nrf2 production EC50
Description: as §1, §2, §3
(§5) To determine the antioxidant response of the samples (at the same concentration as in the viability assay), the Nrf2 activation assay was used following the protocol carried out by Apaza Ticona et al.. Cells were cultured in 96-well plates (1 × 10^4 cells per well). […] Absorbance was measured at 540 nm using a microplate reader.

[5] = NR (neutral red) viability assay, RAW 264.7 cells; assay type: cell-based, Mus musculus; conditions: mouse, RAW 264.7 macrophage cells, RAW 264.7, 72 h, compounds series
Description: as §1
(§6) Cultivated in a Roswell Park Memorial Institute (RPMI) 1640 medium (RPMI 1640 Sigma-Aldrich, CAS No. R7755, St. Louis, MO, USA) supplemented with 2 mM L-glutamine (≥99% Sigma-Aldrich, CAS No. 56-85-9, St. Louis, MO, USA), 10% foetal bovine serum (FBS Sigma-Aldrich, CAS No. TMS-016, St. Louis, MO, USA), and 10,000 units of penicillin and 10 mg streptomycin mL^−1 (Sigma-Aldrich, CAS No. P4333, St. Louis, MO, USA) in culture flasks, the cells were maintained in an incubator under normoxic conditions (20–21% O2) and a humidified atmosphere (5% CO2, at 37 °C).
as §2, §3
(§7) Cell viability was evaluated using a colorimetric assay in 96-well plates, employing 3-amino-7-dimethylamino-2-methylphenazine hydrochloride salt reagent (NR, Sigma-Aldrich, CAS No. 553-24-2, St. Louis, MO, USA). ACTD (≥95% Sigma-Aldrich, CAS No. 50-76-0, St. Louis, MO, USA) was used as a positive control, with a CC50 value of 0.01 μg mL^−1 for the extracts, or 0.008 μM for the compounds. The IC-21 and RAW 264.7 cell lines were cultured in 96-well plates at 37 °C with 5% CO2 until >90% confluency was achieved (1 × 10^4 cells per well). Subsequently, the cultures were treated with sample dilutions (100–0.20 μg mL^−1 or μM) for 72 h at 37 °C with 5% CO2 in phenol red-free RPMI. The supernatant was then discarded, and the cells were washed with phosphate-buffered saline (PBS) before being incubated with […] NR (50 μg mL^−1; 173 μM) for 3 h at 37 °C with 5% CO2. NR labelling was performed after DMSO treatment. […]

RAW 264.7 cell line = assay: NR (neutral red) viability assay, RAW 264.7 cells; assay type: cell-based, Mus musculus; conditions: RAW 264.7, 72 h, compounds series
Description: as §1, §6, §2, §3, §7

[6] = molecular target: Superoxide Dismutase (SOD); assay: SOD activation assay (kit); assay type: biochemical; conditions: 72 h; for EC50: compounds series
Description: as §3
To determine the antioxidant response of the samples (at the same concentration as in the viability assay), the SOD activation assay kit (Sigma-Aldrich, CAS No. MAK528, St. Louis, MO, USA) was used, implementing the protocol adapted from Vincent et al.. […] Absorbance was measured at 450 nm using a microplate reader.

Nrf2 [7] = assay: Nrf2 activation assay, RAW 264.7 cells; assay type: cell-based, Mus musculus; conditions: RAW 264.7, 72 h, read-out: Activation of Nrf2 production EC50
Description: as §1, §2, §3, §5

NF-κB [8] = assay: NF-κB inhibition assay, LPS-stimulated RAW 264.7 cells; assay type: cell-based, Mus musculus; conditions: RAW 264.7, + LPS 100 μg mL^−1, 72 h; for IC50: compounds series, read-out: Inhibition of NF-κB production IC50
Description: as §1, §2, §3
(§8) To assess the anti-inflammatory potential of the samples at the same concentrations used in the cell viability assay, an NF-κB inhibition assay was used following the approach established by Apaza Ticona et al.. Cells were seeded in 96-well plates at a density of 3 × 10^3 cells per well. […] Absorbance was quantified at 450 nm using a microplate reader.

NF-κB [9] = assay: NF-κB inhibition assay, LPS-stimulated IC-21 cells; assay type: cell-based, Mus musculus; conditions: IC-21, + LPS 100 μg mL^−1, 72 h; for IC50: compounds series, read-out: Inhibition of NF-κB production IC50
Description: as §1, §2, §3, §8

[10] = NR (neutral red) viability assay, IC-21 cells; assay type: cell-based, Mus musculus; conditions: mouse, IC-21 macrophage cells, IC-21, 72 h, compounds series
Description: as §1, §6, §2, §3, §7

NF-κB [11] = tested on: NF-κB; design: method as in PMID 24853120, PMID 15668926; conditions: cited from earlier work
Nrf2 [12] = assay: Nrf2 activation assay, value not assigned to one cell line; assay type: cell-based, Mus musculus
Description: as §5

IC-21 cell line = assay: NR (neutral red) viability assay, IC-21 cells; assay type: cell-based, Mus musculus; conditions: IC-21, 72 h, compounds series
Description: as §1, §6, §2, §3, §7

NF-κB [13] = assay: NF-κB inhibition assay, value not assigned to one cell line; assay type: cell-based; conditions: Mus musculus
Description: as §8

[14] = Mus musculus, 72 h, compounds series
[15] = RAW264.7, across IC-21 and RAW 264.7 / cell line not given, compounds series
[16] = Mus musculus, RAW264.7, 72 h, compounds series
[17] = Mus musculus, RAW264.7, 72 h, extracts series
[18] = Mus musculus, RAW264.7, across IC-21 and RAW 264.7 / cell line not stated, compounds series

Row | Compound | IC50 (NO production [1]; [14]) | IC50 (NO production [3]; [16]) | EC50 (Nrf2 [4]; compounds series) | CC50 at 72 h [5] | CC50 (RAW 264.7 cell line) | EC50 [6] | EC50 (Nrf2 [7]; [16]) | IC50 (NF-κB [8]; Mus musculus, RAW264.7, 72 h) | IC50 (NF-κB [9]; Mus musculus, 72 h) | CC50 at 72 h [10] | also measured
1 | [H]/N=C(/NC)NCCC[C@H](N)C(=O)O [LNMMA, N^G-methyl-L-arginine acetate salt] | 6.43 µM | 6.83 µM | – | – | – | – | – | – | – | – | IC50 (NO production [1]; Mus musculus, 72 h, extracts series): 1.57 µg/mL; IC50 (NO production [2]; [15]): 6.63 µM; IC50 (NO production [2]; cell line not stated, extracts series): 1.61 µg/mL; IC50 (NO production [3]; [17]): 1.64 µg/mL
2 | CC(=O)O[C@H]1CC[C@]2(C)[C@H]3C(=O)C=C4[C@@H]5[C@@H](C)[C@H](C)CC[C@]5(C(=O)O)CC[C@@]4(C)[C@]3(C)CC[C@H]2C1(C)C [compound 2, (3β)-3-acetyloxy-11-oxours-12-en-28-oic acid] | 11.3 µM | 15.5 µM | 524 nM | 84.9 µM | 84.9 µM | 7.43 µM | 0.772 µM | 20 µM | 13.4 µM | 78.5 µM | –
3 | O=C(O)c1cc(O)c(O)c(O)c1 [GA, gallic acid, reference compound] | – | – | – | – | – | 12.1 µM | – | – | – | – | SOD activation EC50 ([6]; extracts series): 2.06 µg/mL
4 | COc1cc(/C=C/C(=O)CC(=O)/C=C/c2ccc(O)c(OC)c2)ccc1O [curcumin] | – | – | – | – | – | – | – | – | – | – | concentration capable of inhibiting NF-κB activation (NF-κB [11]): 10 to 50 µM
5 | C[C@H]1[C@H](C)CC[C@]2(C(=O)O)CC[C@]3(C)C(=CC(=O)[C@@H]4[C@@]5(C)CCC(=O)C(C)(C)[C@@H]5CC[C@]43C)[C@H]12 [compound 1, 3,11-dioxours-12-en-28-oic acid] | 4.75 µM | 6.59 µM | 243 nM | 75.4 µM | 75.4 µM | 1.87 µM | 0.548 µM | 8.11 µM | 7.39 µM | 67.6 µM | EC50 (Nrf2 [12]; [18]): 243 to 548 nM; EC50 (Nrf2 [7]; compounds series): 0.548 µM; IC50 (NO production [2]; [15]): 4.75 to 6.59 µM; CC50 (IC-21 cell line): 67.6 µM; IC50 (NF-κB [13]; RAW264.7, across IC-21 and RAW 264.7 / cell line not given, compounds series, read-out: NF-κB inhibition IC50): 7.39 to 8.11 µM
6 | C[C@H]1[C@H](C)CC[C@]2(C(=O)O)CC[C@]3(C)C(=CC(=O)[C@@H]4[C@@]5(C)CC[C@H](O)C(C)(C)[C@@H]5CC[C@]43C)[C@H]12 [compound 3, (3β)-3-hydroxy-11-oxours-12-en-28-oic acid] | 16.6 µM | 24.8 µM | 1030 nM | 92.4 µM | 92.4 µM | 13.2 µM | 1.14 µM | 27.1 µM | 21 µM | 88.5 µM | CC50 (IC-21 cell line): 88.5 µM
7 | O=c1c(O)c(-c2ccc(O)c(O)c2)oc2cc(O)cc(O)c12 [quercetin] | – | – | – | – | – | – | – | – | – | – | concentration capable of inhibiting NF-κB activation (NF-κB [11]): 25 to 100 µM
8 | lipopolysaccharide [LPS, reference compound] | – | – | – | – | – | – | – | – | – | – | IC50 (NO production [1]; compounds series): 97 µM; Inhibition of NO production IC50 (NO production [1]; extracts series): 95.2 µg/mL; IC50 (NF-κB [8]): 99.2 µM; Inhibition of NF-κB production IC50 (NF-κB [8]; extracts series): 98.7 µg/mL; IC50 (NF-κB [9]): 95.8 µM; Inhibition of NF-κB production IC50 (NF-κB [9]; extracts series): 97.5 µg/mL; IC50 (NO production [3]; compounds series): 98.3 µM; Inhibition of NO production IC50 (NO production [3]; extracts series): 97.2 µg/mL
9 | CC1=C(O)C(=O)C=C2C1=CC=C1[C@@]2(C)CC[C@@]2(C)[C@@H]3C[C@](C)(C(=O)O)CC[C@]3(C)CC[C@]12C [CEL, celastrol] | – | – | – | – | – | – | – | – | – | – | IC50 (NF-κB [13]; RAW264.7, read-out: NF-κB inhibition IC50): 7.41 µM; IC50 (NF-κB [13]; read-out: NF-κB inhibition IC50): 3.34 µg/mL
10 | COC(=O)[C@]12CCC(C)(C)C[C@H]1[C@H]1C(=O)C=C3[C@@]4(C)C=C(C#N)C(=O)C(C)(C)[C@@H]4CC[C@@]3(C)[C@]1(C)CC2 [CDDO-Me, bardoxolone methyl, reference compound] | – | – | 0.09 nM | – | – | – | 0.00013 µM | – | – | – | EC50 (Nrf2 [4]; extracts series): 0.05 ng/mL; EC50 (Nrf2 [12]; [18]): 0.09 to 0.13 nM; EC50 (Nrf2 [12]; Mus musculus, cell line not stated, extracts series): 0.07 ng/mL; EC50 (Nrf2 [12]; across IC-21 and RAW 264.7 / cell line not given, compounds series): 0.11 nM; EC50 (Nrf2 [7]; [17]): 0.08 ng/mL
